Measurements: patent publication US20060258598A1, “Alpha-keto carbonyl calpain inhibitors” (priority 2003, published 2006)

Assays:
20S Proteasome = target: T1, 20S Proteasome (Oryctolagus cuniculus, UniProt G1T4Q9); assay: 20S Proteasome assay; format: biochemical, Rabbit; conditions: substrate Suc-Leu-Leu-Val-Tyr-AMC; read-out: 20S Prot IC50
T1 sequence (G1T4Q9 1-263): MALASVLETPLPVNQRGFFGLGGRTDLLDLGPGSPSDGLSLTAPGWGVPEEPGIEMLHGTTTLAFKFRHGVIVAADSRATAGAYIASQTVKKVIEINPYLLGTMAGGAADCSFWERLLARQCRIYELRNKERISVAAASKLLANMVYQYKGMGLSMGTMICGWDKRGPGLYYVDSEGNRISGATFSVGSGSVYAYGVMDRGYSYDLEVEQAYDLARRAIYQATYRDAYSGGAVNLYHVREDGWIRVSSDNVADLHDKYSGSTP
Procedure: 25 μl of a reaction buffer containing 400 μM of the fluorogenic substrate Suc-Leu-Leu-Val-Tyr-AMC (Bachem) are dispensed per well of a white microtiter plate. Test compounds dissolved in 0.5 μl DMSO are added. To start the reaction; 25 μl of reaction buffer containing 35 ng of enzyme (20S Proteasome, Rabbit, Calbiochem) are added. The increase in fluorescence (excitation at 360 nm; emission at 440 nm) is measured over 30 min at 30° C. at 30″. The IC50's are then determined from the slopes.

[1] = system: Primary fibroblasts from donors with Friedreich Ataxia (FRDA); assay: BSO assay (cell viability under BSO-induced oxidative stress); format: cell-based, human; conditions: Homo sapiens, Fibroblast, 24 h preincubation, 1 mM BSO
In short: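 FRDA patient primary fibroblasts were pretreated with compounds for 24 h, then exposed to 1 mM BSO (final) until toxicity appeared in BSO-only controls (typically 16–48 h). Viability was read by calcein AM (1.2 μM)/ethidium homodimer (4 μM) staining, 60 min RT, fluorescence 485/525 nm.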

mdx mouse = assay: Longterm treatment of mdx mice (model for Duchenne Muscular Dystrophy); format: in vivo; conditions: 10 mg/kg/day i.p., 4 weeks, vs vehicle mdx mice
Procedure: The mdx mouse is a well established animal model for Duchenne Muscular Dystrophy (Bulfield G., Siller W. G., Wight P. A., Moore K. J., X chromosome-linked muscular dystrophy (mdx) in the mouse, Proc. Natl. Acad. Sci. USA., 1984, 81(4), 1189-1192). Selected compounds were tested in longterm treatments of mdx mice, according to the procedures described below.
Mouse strains: C57BL/10scsn and C57BL/10scsn mdx mouse strains were purchased at The Jackson Laboratory (ME, USA) and bred inhouse. Mouse males were sacrificed at the age of 3 or 7 weeks by CO2 asphyxiation.
Treatment: Compounds were dissolved in 50% PEG, 50% saline solution and applied by i.p. injection.
Histology: Tibialis anterior (TA) and diaphragm (Dia) muscles were collected and mounted on cork supports using gum tragacanth (Sigma-Aldrich, Germany). The samples were snap-frozen in melting isopentane and stored at −80° C. 12 μm thick cryosections of the mid-belly region of muscles were prepared. For staining, sections were air dried and fixed with 4% PFA in PBS for 5 minutes, washed 3 times with PBS and incubated over night at 4° C. in PBS containing 2 μg/ml Alexa Fluor™ 488 conjugated wheat-germ agglutinin (WGA-Alexa, Molecular Probes, Eugen, Oreg., USA) to stain membrane-bound and extracellular epitopes and 1 μg/ml 4′,6-diamidino-2-phenylindole (DAPI; Molecular Probes) to stain nuclei.
Image acquisition and analysis: Fluorescence microscopy images of both labels were acquired using a digital camera (ColorView II, Soft Imaging System, Munster, Germany) coupled to a fluorescence microscope (Vanox S, Olympus, Tokyo, Japan). Combination of these two stainings to a composite image, assembling of several images to a complete image of the entire muscle cross-section and further semi-automated analysis was performed using the image analysis program AnalySIS (Soft Imaging System). Image analysis of 1200-2900 muscle fibers in each section was performed in three steps: 1) determination of the muscle fiber boundaries, 2) determination of the muscle fiber size, and 3) determination of the percentage of muscle fibers containing centralized nuclei. Six different geometrical parameters were tested for the determination of the muscle fiber size: (a) the “minimal feret” (the minimum distance of parallel tangents at opposing borders of the muscle fiber), (b) the “area”, (c) the “minimal inner diameter” (the minimum diameter through the center of the muscle fiber), (d) the “minimal diameter” (the minimum diameter of a muscle fiber for angles in the range 0° through 179° with step width 1°, (e) the “minimal outer diameter” (the minimum diameter through the muscle fiber from outer border to outer border), and (f) the “perimeter”. The variance coefficient of the muscle fiber size is defined as follows: variance coefficient=(standard deviation of the muscle fiber size/mean of the muscle fiber size of the section)*1000. For statistical analysis of different variance coefficient values Mann-Whitney U test was used.
Selected Examples of the present invention were active in the mdx mouse model at 10 mg/kg/day, using 3 week old mice and a treatment period of 4 weeks (N=5−10).

IC50 (20S Proteasome): 40 nM
SMILES: CCNC(=O)C(=O)[C@H](Cc1ccc(Br)cc1)NC(=O)[C@H](CC(C)C)NC(=O)CCCCC1CCSS1 (stereo partly drawn) [Example 64]
EC50 [1]: 1000 nM
decrease in the variance coefficient of the muscle fiber size (mdx mouse; Dia (diaphragm)): 29%
reduction of percentage of centralized nuclei (mdx mouse; Dia (diaphragm)): 61%
decrease in the variance coefficient of the muscle fiber size (mdx mouse; TA (tibialis anterior)): 43%
reduction of percentage of centralized nuclei (mdx mouse; TA (tibialis anterior)): 28%
